Assay results published in patent US6355799B1, “Substituted benzene compounds, process for their preparation, and herbicidal and defoliant compositions containing them” (ISK Americas Incorporated, priority 1997, dated 2002).

Legend:
Type in all cases: in vivo
[1] = tested on: green foxtail (Setaria viridis, SETVI); assay: Pre-emerge test, greenhouse herbicide activity screening; settings: phytotoxicity rating 0-100, 14 days after application
Method in brief: (§1)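 Sandy loam pots; pre-emerge: sown 1 d pre-spray, surface-watered after, then bottom-watered. Post-emerge: sown 8–21 d before, 2–3 leaf stage, + 0.25% v/v NIS, bottom-watered. Acetone, 187 l/ha track spray, 15–1000 g ai/ha. 0–100 injury score, day 14.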

[2] = tested on: common ragweed (Ambrosia artemisizfolia L., AMBEL); assay: as above; settings: phytotoxicity rating 0-100, 14 days after application
Method in brief: as §1

[3] = tested on: sicklepod (Cassia obtusifolia, CASOB); assay: as above; settings: phytotoxicity rating 0-100, 14 days after application
Method in brief: as §1

[4] = tested on: large crabgrass (Digitaria sanguinalis, DIGSA); assay: as above; settings: phytotoxicity rating 0-100, 14 days after application
Method in brief: as §1

[5] = tested on: johnsongrass (Sorghum halepense, SORHA); assay: as above; settings: phytotoxicity rating 0-100, 14 days after application
Method in brief: as §1

[6] = tested on: lambsquarters (Chenopodium album, CHEAL); assay: as above; settings: phytotoxicity rating 0-100, 14 days after application
Method in brief: as §1

[7] = tested on: barnyardgrass (Echinochloa crus-galli, ECHCG); assay: as above; settings: phytotoxicity rating 0-100, 14 days after application
Method in brief: as §1

[8] = tested on: ivyleaf morningglory (Ipomoea hederacea, IPOHE); assay: as above; settings: phytotoxicity rating 0-100, 14 days after application
Method in brief: as §1

[9] = tested on: velvetleaf (Abutilon theophrasti, ABUTH); assay: as above; settings: phytotoxicity rating 0-100, 14 days after application
Method in brief: as §1

[10] = tested on: green foxtail (Setaria viridis, SETVI); assay: Post-emerge test, greenhouse herbicide activity screening; settings: post-emerge, 14 days after application, rating scale 0-100
Method in brief: (§2)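 Plants grown in 10 cm pots of sandy loam mix received acetone-dissolved compounds through a moving flat-fan nozzle. Doses ranged from 15 to 1000 g ai/ha. Pre-emerge pots were seeded one day earlier, post-emerge pots 8–21 days earlier. Fourteen days on, each pot was graded 0–100 for damage.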

[11] = tested on: common ragweed (Ambrosia artemisizfolia L., AMBEL); assay: as above; settings: post-emerge, 14 days after application, rating scale 0-100
Method in brief: as §2

[12] = tested on: sicklepod (Cassia obtusifolia, CASOB); assay: as above; settings: post-emerge, 14 days after application, rating scale 0-100
Method in brief: as §2

[13] = tested on: large crabgrass (Digitaria sanguinalis, DIGSA); assay: as above; settings: post-emerge, 14 days after application, rating scale 0-100
Method in brief: as §2

[14] = tested on: johnsongrass (Sorghum halepense, SORHA); assay: as above; settings: post-emerge, 14 days after application, rating scale 0-100
Method in brief: as §2

[15] = tested on: lambsquarters (Chenopodium album, CHEAL); assay: as above; settings: post-emerge, 14 days after application, rating scale 0-100
Method in brief: as §2

[16] = tested on: barnyardgrass (Echinochloa crus-galli, ECHCG); assay: as above; settings: post-emerge, 14 days after application, rating scale 0-100
Method in brief: as §2

[17] = tested on: ivyleaf morningglory (Ipomoea hederacea, IPOHE); assay: as above; settings: post-emerge, 14 days after application, rating scale 0-100
Method in brief: as §2

[18] = tested on: velvetleaf (Abutilon theophrasti, ABUTH); assay: as above; settings: post-emerge, 14 days after application, rating scale 0-100
Method in brief: as §2

[19] = tested on: redroot pigweed (Amaranthus retroflexus, AMARE); assay: as above; settings: post-emerge, 14 days after application
Method in brief: as §2

[20] = tested on: upland rice (Oryza sp., var. Tebonnet, RICE); assay: Post-emerge test, crop safety; settings: post-emerge, 14 days after application, rating scale 0-100
Method in brief: as §1

[21] = tested on: field corn (Zea mays L., var. Dekalb 535, CORN); assay: Post-emerge test, crop safety; settings: post-emerge, 14 days after application, rating scale 0-100
Method in brief: as §1

[22] = tested on: redroot pigweed (Amaranthus retroflexus, AMARE); assay: Pre-emerge test, greenhouse herbicide activity screening; settings: phytotoxicity rating 0-100, 14 days after application
Method in brief: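 Compounds in acetone were track-sprayed at 187 l/ha, 15–1000 g ai/ha, onto sandy loam pots. Pre-emerge seeds were sown one day before spraying, with surface watering afterwards. Post-emerge plants were at the 2–3 leaf stage and sprayed with 0.25% v/v non-ionic surfactant. Injury was rated 0–100 at 14 days.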

[23] = tested on: upland rice (Oryza sp., var. Tebonnet, RICE); assay: Pre-emerge test, crop safety; settings: crop damage rating 0-100, 14 days after application
Method in brief: (§3)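 Fourteen days after spraying, crop and weed injury was graded visually from 0, no effect, to 100, every plant dead. Test substances were dissolved in acetone and applied at 15–1000 g ai/ha with a flat-fan nozzle. Application was either pre-emergence, one day after sowing, or post-emergence at the 2–3 leaf stage.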

[24] = tested on: field corn (Zea mays L., var. Dekalb 535, CORN); assay: Pre-emerge test, crop safety; settings: crop damage rating 0-100, 14 days after application
Method in brief: as §3

COC(=O)N(C(=O)OC)c1c(OC)c(Cl)cc(F)c1-n1c(=O)cc(C(F)(F)F)n(C)c1=O [4-2]
Pre-emerge Herbicidal Activity SETVI ([1]; 63 g ai/ha): 70
Pre-emerge Herbicidal Activity SETVI ([1]; 250 g ai/ha): 100
Pre-emerge Herbicidal Activity AMBEL ([2]; 63 g ai/ha): 30
Pre-emerge Herbicidal Activity AMBEL ([2]; 250 g ai/ha): 100
Pre-emerge Herbicidal Activity CASOB ([3]; 63 g ai/ha): 0
Pre-emerge Herbicidal Activity CASOB ([3]; 250 g ai/ha): 80
Pre-emerge Herbicidal Activity DIGSA ([4]; 63 g ai/ha): 40
Pre-emerge Herbicidal Activity DIGSA ([4]; 250 g ai/ha): 90
Pre-emerge Herbicidal Activity SORHA ([5]; 63 g ai/ha): 0
Pre-emerge Herbicidal Activity SORHA ([5]; 250 g ai/ha): 70
Pre-emerge Herbicidal Activity CHEAL ([6]; 63 g ai/ha): 100
Pre-emerge Herbicidal Activity CHEAL ([6]; 250 g ai/ha): 100
Pre-emerge Herbicidal Activity ECHCG ([7]; 63 g ai/ha): 0
Pre-emerge Herbicidal Activity ECHCG ([7]; 250 g ai/ha): 80
Pre-emerge Herbicidal Activity IPOHE ([8]; 63 g ai/ha): 0
Pre-emerge Herbicidal Activity IPOHE ([8]; 250 g ai/ha): 100
Pre-emerge Herbicidal Activity ABUTH ([9]; 63 g ai/ha): 100
Pre-emerge Herbicidal Activity ABUTH ([9]; 250 g ai/ha): 100
phytotoxicity rating SETVI ([10]; 63 g ai/ha): 0
phytotoxicity rating SETVI ([10]; 250 g ai/ha): 20
phytotoxicity rating AMBEL ([11]; 63 g ai/ha): 0
phytotoxicity rating AMBEL ([11]; 250 g ai/ha): 30
phytotoxicity rating CASOB ([12]; 63 g ai/ha): 0
phytotoxicity rating CASOB ([12]; 250 g ai/ha): 40
phytotoxicity rating DIGSA ([13]; 63 g ai/ha): 0
phytotoxicity rating DIGSA ([13]; 250 g ai/ha): 0
phytotoxicity rating SORHA ([14]; 63 g ai/ha): 0
phytotoxicity rating SORHA ([14]; 250 g ai/ha): 0
phytotoxicity rating CHEAL ([15]; 63 g ai/ha): 40
phytotoxicity rating CHEAL ([15]; 250 g ai/ha): 95
phytotoxicity rating ECHCG ([16]; 63 g ai/ha): 0
phytotoxicity rating ECHCG ([16]; 250 g ai/ha): 0
phytotoxicity rating IPOHE ([17]; 63 g ai/ha): 70
phytotoxicity rating IPOHE ([17]; 250 g ai/ha): 100
phytotoxicity rating ABUTH ([18]; 63 g ai/ha): 70
phytotoxicity rating ABUTH ([18]; 250 g ai/ha): 100
phytotoxicity rating AMARE ([19]; 63 g ai/ha, rating scale 0-100 (0 no damage, 100 complete death)): 50
phytotoxicity rating AMARE ([19]; 250 g ai/ha, rating scale 0-100): 85
phytotoxicity rating RICE (crop damage) ([20]; 63 g ai/ha): 0
phytotoxicity rating RICE (crop damage) ([20]; 250 g ai/ha): 30
phytotoxicity rating CORN (crop damage) ([21]; 63 g ai/ha): 0
phytotoxicity rating CORN (crop damage) ([21]; 250 g ai/ha): 10
Pre-emerge Herbicidal Activity AMARE ([22]; 63 g ai/ha): 100
Pre-emerge Herbicidal Activity AMARE ([22]; 250 g ai/ha): 100
Pre-emerge Herbicidal Activity RICE ([23]; 63 g ai/ha): 10
Pre-emerge Herbicidal Activity RICE ([23]; 250 g ai/ha): 20
Pre-emerge Herbicidal Activity CORN ([24]; 63 g ai/ha): 0
Pre-emerge Herbicidal Activity CORN ([24]; 250 g ai/ha): 5
